Structures are written as SMILES. Where only a bound is given, the exact number is not on record here.

In patent US20250136606A1, “MODULATORS OF TRPML, THEIR COMPOSITIONS AND METHODS OF USE” (Caraway Therapeutics, Inc., priority 2021, published 2025) one finds EC50 data, which are given here for 19 compounds.

Common to all, as to format: cell-based
What all share (settings): fluorescent calcium assay

One test addresses TRPML1 (Homo sapiens, UniProt Q9GZU1). Nature of the test: Fluorescent TRPML1 assay (Fluo4-AM calcium fluorescence in doxycycline-induced HEK-293 Trex cells). An outline of the steps: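 HEK-293 Trex cells stably carrying human TRPML1 (surface-trafficking mutant) were induced overnight with 0.5 ug/mL doxycycline, loaded with 1 micromolar Fluo4-AM, and suspended in Ringer's with 10 mM calcium. Compounds at 20 micromolar to 6 nanomolar final, half-log steps, triplicate; fluorescence 480/540 nm gave percent activity versus controls and EC50 by non-linear regression.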

In the next test the target is T1, TRPML2 (Homo sapiens, UniProt Q8IZK6).
T1 construct: expressed in transfected cells
T1 sequence (Q8IZK6 1-566): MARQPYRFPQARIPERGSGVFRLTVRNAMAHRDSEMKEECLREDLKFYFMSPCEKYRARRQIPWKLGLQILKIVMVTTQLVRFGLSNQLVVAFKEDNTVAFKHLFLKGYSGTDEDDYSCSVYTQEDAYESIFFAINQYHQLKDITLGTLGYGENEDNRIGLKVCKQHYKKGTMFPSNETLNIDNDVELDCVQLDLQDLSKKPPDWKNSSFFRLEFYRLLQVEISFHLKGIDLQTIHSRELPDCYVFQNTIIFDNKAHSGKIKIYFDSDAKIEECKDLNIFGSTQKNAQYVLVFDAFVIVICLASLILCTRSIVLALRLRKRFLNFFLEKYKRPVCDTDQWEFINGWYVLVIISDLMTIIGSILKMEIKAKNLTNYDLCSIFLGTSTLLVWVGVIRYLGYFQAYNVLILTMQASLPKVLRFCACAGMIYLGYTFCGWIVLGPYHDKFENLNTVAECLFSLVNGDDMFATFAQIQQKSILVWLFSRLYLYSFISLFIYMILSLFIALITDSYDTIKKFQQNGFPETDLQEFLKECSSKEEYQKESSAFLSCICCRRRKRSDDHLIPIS
Description: Fluorescent TRPML2 assay (performed as for TRPML1, substituting the TRPML2 subtype). An outline of the steps:
(§1)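 HEK-293 Trex cells with doxycycline-induced (0.5 ug/mL) surface-directed human TRPML subtype, loaded with 1 μM Fluo4-AM, resuspended in Ringer's with 10 mM calcium. Compounds at 20 μM to 6 nM final in half-log steps, triplicate; fluorescence ex 480/em 540; EC50 by non-linear regression versus plate controls.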

For a further test, the target named is T2, TRPML3 (Homo sapiens, UniProt Q8TDD5).
T2 construct: expressed in transfected cells
T2 sequence (Q8TDD5 1-553): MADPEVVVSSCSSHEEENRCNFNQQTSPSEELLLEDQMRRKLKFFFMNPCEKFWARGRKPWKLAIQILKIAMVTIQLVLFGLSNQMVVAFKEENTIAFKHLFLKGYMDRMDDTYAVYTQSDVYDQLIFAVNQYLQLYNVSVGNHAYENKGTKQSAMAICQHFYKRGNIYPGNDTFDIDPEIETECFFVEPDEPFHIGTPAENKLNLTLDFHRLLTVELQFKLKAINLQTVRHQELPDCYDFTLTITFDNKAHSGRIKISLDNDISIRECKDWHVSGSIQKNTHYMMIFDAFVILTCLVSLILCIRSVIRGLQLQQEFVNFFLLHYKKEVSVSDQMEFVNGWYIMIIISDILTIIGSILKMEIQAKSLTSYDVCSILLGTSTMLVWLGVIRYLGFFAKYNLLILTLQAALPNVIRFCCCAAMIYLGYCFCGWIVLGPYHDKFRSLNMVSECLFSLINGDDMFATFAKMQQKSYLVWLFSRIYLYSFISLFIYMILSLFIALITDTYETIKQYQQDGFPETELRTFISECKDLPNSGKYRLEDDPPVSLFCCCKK
Description: Fluorescent TRPML3 assay (performed as for TRPML1, substituting the TRPML3 subtype). An outline of the steps:
as §1

Chain of TRPML1 (Q9GZU1 whole entry L15A/L16A/L577A/L578A, form open): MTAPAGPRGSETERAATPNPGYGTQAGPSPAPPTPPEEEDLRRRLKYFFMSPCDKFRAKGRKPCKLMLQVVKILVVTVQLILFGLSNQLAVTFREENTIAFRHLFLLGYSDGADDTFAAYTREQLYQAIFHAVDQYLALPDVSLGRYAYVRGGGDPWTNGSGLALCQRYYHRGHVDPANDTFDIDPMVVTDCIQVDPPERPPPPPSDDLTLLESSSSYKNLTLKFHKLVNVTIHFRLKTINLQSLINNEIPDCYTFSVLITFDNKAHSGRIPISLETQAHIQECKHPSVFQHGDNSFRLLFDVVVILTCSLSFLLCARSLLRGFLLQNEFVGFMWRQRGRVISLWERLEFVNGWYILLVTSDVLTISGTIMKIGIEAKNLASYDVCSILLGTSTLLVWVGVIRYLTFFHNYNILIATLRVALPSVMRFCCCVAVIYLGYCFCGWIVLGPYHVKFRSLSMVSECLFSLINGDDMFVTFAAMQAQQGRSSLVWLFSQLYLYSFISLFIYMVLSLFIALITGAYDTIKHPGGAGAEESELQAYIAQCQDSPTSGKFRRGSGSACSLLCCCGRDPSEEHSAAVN

As to `CC(C)(C)OC(=O)N1CCN(c2ncnc3c2c(-c2ccccc2F)cn3-c2cc(C#N)ccn2)C2CC21` (stereo not drawn) [Compound 412], the concentration for a half-maximal effect (EC50) at TRPML1 was 100 to 500 nM; on TRPML2 it was 100 to 500 nM; at TRPML3, less than 100 nM.

As to `C[C@H]1CN(C(=O)OC(C)(C)C)CCN1c1ncnc2c1c(C1CC1)cn2-c1cc(C#N)n(C)n1` [Compound 413, tert-butyl (S)-4-(7-(5-cyano-1-methyl-1H-pyrazol-3-yl)-5-cyclopropyl-7H-pyrrolo[2,3-d]pyrimidin-4-yl)-3-methylpiperazine-1-carboxylate], the EC50 is 100 to 500 nM on TRPML1, 100 to 500 nM on TRPML2 and less than 100 nM on TRPML3.

Regarding `C[C@H]1CN(C(=O)OC(C)(C)C)CCN1c1ncnc2c1c(C1CC1)cn2C1CC(C#N)C1` (stereo partly drawn) [Compound 414, tert-butyl (S)-4-(7-(3-cyanocyclobutyl)-5-cyclopropyl-7H-pyrrolo[2,3-d]pyrimidin-4-yl)-3-methylpiperazine-1-carboxylate], the EC50 was 500 to 2000 nM on TRPML1, more than 2000 nM on TRPML2 and 500 to 2000 nM at TRPML3.

Consider `C[C@H]1CN(C(=O)OC(C)(C)C)CCN1c1ncnc2c1c(N(C)C)cn2-c1cccc(Cl)c1` [Compound 415], for which the EC50 on TRPML1 is less than 100 nM; at TRPML2, 100 to 500 nM; on TRPML3 it was less than 100 nM.

In the case of `C[C@@H]1CN(c2ncnc3c2c(N2CCCC2)cn3-c2cc(C#N)ccn2)CCN1C(=O)OC(C)(C)C` [Compound 416, tert-butyl (R)-4-(7-(4-cyanopyridin-2-yl)-5-(pyrrolidin-1-yl)-7H-pyrrolo[2,3-d]pyrimidin-4-yl)-2-methylpiperazine-1-carboxylate], the EC50 on TRPML1, on TRPML2 and on TRPML3 was less than 100 nM each time.

Turning to `C[C@@H]1CN(c2cn(-c3cc(C#N)ccn3)c3ncnc(N4CCN(C(=O)OC(C)(C)C)C[C@@H]4C)c23)CCO1` [Compound 417, tert-butyl (S)-4-(7-(4-cyanopyridin-2-yl)-5-((R)-2-methylmorpholino)-7H-pyrrolo[2,3-d]pyrimidin-4-yl)-3-methylpiperazine-1-carboxylate], the EC50 is less than 100 nM at TRPML1, 100 to 500 nM at TRPML2 and less than 100 nM at TRPML3.

In the case of `C[C@@H]1CN(c2nccc3c2c(C2CC2)cn3-c2cc(F)cc(F)c2)CCN1C(=O)OC(C)(C)C` [Compound 418, tert-butyl (R)-4-(3-cyclopropyl-1-(3,5-difluorophenyl)-1H-pyrrolo[3,2-c]pyridin-4-yl)-2-methylpiperazine-1-carboxylate], the EC50 is less than 100 nM on TRPML1, 100 to 500 nM on TRPML2 and less than 100 nM on TRPML3.

For `C[C@@H]1COCCN1c1cn(-c2cc(C#N)ccn2)c2ncnc(N3CCN(C(=O)OC(C)(C)C)C[C@@H]3C)c12` [Compound 419, tert-butyl (S)-4-(7-(4-cyanopyridin-2-yl)-5-((R)-3-methylmorpholino)-7H-pyrrolo[2,3-d]pyrimidin-4-yl)-3-methylpiperazine-1-carboxylate], the EC50 was less than 100 nM at TRPML1, 100 to 500 nM on TRPML2 and less than 100 nM on TRPML3.

In the case of `CC(C)(C)OC(=O)N1CCN(c2ncnc3c2c(-c2ccccc2F)cn3-c2cc(C#N)ccn2)C(C)(C)C1` [Compound 420, tert-butyl 4-(7-(4-cyanopyridin-2-yl)-5-(2-fluorophenyl)-7H-pyrrolo[2,3-d]pyrimidin-4-yl)-3,3-dimethylpiperazine-1-carboxylate], the concentration giving a half-maximal response (EC50) at TRPML1, on TRPML2 and on TRPML3 was less than 100 nM in each case.

As for `CC(C)(C)OC(=O)N1CCN(c2ncnc3c2c(C2CC2)cn3-c2cc(C#N)ccn2)C(C)(C)C1` [Compound 421, tert-butyl 4-(7-(4-cyanopyridin-2-yl)-5-cyclopropyl-7H-pyrrolo[2,3-d]pyrimidin-4-yl)-3,3-dimethylpiperazine-1-carboxylate], the results for the EC50 at TRPML1, at TRPML2 and at TRPML3 were 100 to 500 nM, less than 100 nM and less than 100 nM, respectively.

In the case of `CCN(CC)c1cn(-c2cc(C#N)ccn2)c2ncnc(N3CCN(C(=O)OC(C)(C)C(F)(F)F)C[C@@H]3C)c12` [Compound 422, 1,1,1-trifluoro-2-methylpropan-2-yl (S)-4-(7-(4-cyanopyridin-2-yl)-5-(diethylamino)-7H-pyrrolo[2,3-d]pyrimidin-4-yl)-3-methylpiperazine-1-carboxylate], the EC50 at TRPML1 was less than 100 nM; at TRPML2 it was 100 to 500 nM; on TRPML3, less than 100 nM.

Turning to `CCCN(CC)c1cn(-c2cc(C#N)ccn2)c2ncnc(N3CCN(C(=O)OC(C)(C)C)C[C@@H]3C)c12` [Compound 423, tert-butyl (S)-4-(7-(4-cyanopyridin-2-yl)-5-(ethyl(propyl)amino)-7H-pyrrolo[2,3-d]pyrimidin-4-yl)-3-methylpiperazine-1-carboxylate], the EC50 at TRPML1, at TRPML2 and at TRPML3 was less than 100 nM throughout.

As to `CCN(CC)c1cn(-c2cc(C#N)ccn2)c2ncnc(N3CCN(C(=O)OC(C)(C)C)C[C@@H]3C)c12` [Compound 424, tert-butyl (S)-4-(7-(4-cyanopyridin-2-yl)-5-(diethylamino)-7H-pyrrolo[2,3-d]pyrimidin-4-yl)-3-methylpiperazine-1-carboxylate], the EC50 on TRPML1 was less than 100 nM; at TRPML2, 100 to 500 nM; at TRPML3, less than 100 nM.

`CCN(CC)c1cn(-c2cc(C#N)ccn2)c2ncnc(N3CCN(C(=O)OC(C)(C)C)[C@H](C)C3)c12` [Compound 425, tert-butyl (R)-4-(7-(4-cyanopyridin-2-yl)-5-(diethylamino)-7H-pyrrolo[2,3-d]pyrimidin-4-yl)-2-methylpiperazine-1-carboxylate]: the results for the half-maximal effective concentration (EC50) at TRPML1, on TRPML2 and on TRPML3 were less than 100 nM, 100 to 500 nM and less than 100 nM, respectively.

In the case of `C[C@H]1CN(C(=O)OC(C)(C)C)CCN1c1ncnc2c1c(N(C)C)cn2-c1cc(C#N)ccn1` [Compound 426, tert-butyl (S)-4-(7-(4-cyanopyridin-2-yl)-5-(dimethylamino)-7H-pyrrolo[2,3-d]pyrimidin-4-yl)-3-methylpiperazine-1-carboxylate], the EC50 at TRPML1, at TRPML2 and at TRPML3 was less than 100 nM in each case.

Take `C[C@@H]1CN(c2ncnc3c2c(N(C)C)cn3-c2cc(C#N)ccn2)CCN1C(=O)OC(C)(C)C` [Compound 427, tert-Butyl (R)-4-(7-(4-cyanopyridin-2-yl)-5-(dimethylamino)-7H-pyrrolo[2,3-d]pyrimidin-4-yl)-2-methylpiperazine-1-carboxylate]: the EC50 at TRPML1, on TRPML2 and on TRPML3 was less than 100 nM in each case.

As for `C[C@H]1CN(C(=O)OC(C)(C)C)CCN1c1ncnc2c1c(-c1ccccc1F)cn2-c1ncc(C#N)s1` [Compound 428, tert-butyl (S)-4-(7-(5-cyanothiazol-2-yl)-5-(2-fluorophenyl)-7H-pyrrolo[2,3-d]pyrimidin-4-yl)-3-methylpiperazine-1-carboxylate], the EC50 on TRPML1, on TRPML2 and at TRPML3 was less than 100 nM each time.

Consider `CC(C)(C)OC(=O)N1CCN(c2ncnc3c2c(C2CC2)cn3-c2cc(C#N)ccn2)C2(CC2)C1` [Compound 429, tert-butyl 4-(7-(4-cyanopyridin-2-yl)-5-cyclopropyl-7H-pyrrolo[2,3-d]pyrimidin-4-yl)-4,7-diazaspiro[2.5]octane-7-carboxylate], for which the 50% effective concentration (EC50) on TRPML1, on TRPML2 and on TRPML3 was less than 100 nM throughout.

As to `C[C@@H]1CN(c2ncnc3c2c(N(C)C)cn3-c2cccc(Cl)c2)CCN1C(=O)OC(C)(C)C` [Compound 430, tert-butyl (R)-4-(7-(3-chlorophenyl)-5-(dimethylamino)-7H-pyrrolo[2,3-d]pyrimidin-4-yl)-2-methylpiperazine-1-carboxylate], the EC50 at TRPML1 was less than 100 nM; at TRPML2, 100 to 500 nM; at TRPML3, less than 100 nM.

By EC50 is commonly meant the midpoint of the concentration-response curve.
